This is an account of results in patent US12679822B2, “Alkenyl pyrimidine compound, preparation method therefor, and application thereof” (Hongyun Biotech Co., Ltd., priority 2020, dated 2026).

SMILES strings stand for the structures. A value given as a limit tells only on which side of the number the result lay.

Common to all, as to format: cell-based
Assay [1] addresses BaF3 cell lines stably transfected with kinase EGFR L858R/T790M/C797S (Homo sapiens, UniProt P00533, T790M/C797S/L858R, cells depend on it). The assay is described as follows: Growth inhibition of BaF3 cell line stably transfected with kinase EGFR L858R/T790M/C797S (MTS). The settings on record: 48 h, read-out: growth inhibitory activity IC50, L858R/T790M/C797S. Here is the method:
(§1) Biological Activity Assay: Growth Inhibitory Activity of Compounds on Cell Lines Stably Transfected with Kinase
(§2) The activity of compounds against various mutants of kinase EGFR was evaluated by their effect of inhibiting growth of BaF3 cell lines stably transfected with kinase. The specific test method was given as follows:
(§3) 1) Culture medium: DMEM (Dulbecco's modified eagle medium) or RPMI 1640 (containing 10% fetal bovine serum, 100 μg/mL ampicillin, 100 μg/mL streptomycin).
(§4) 2) Reagent: MTS reaction solution (containing 2 mg/mL of MTS [3-(4,5-di methylthiazol-2-yl)-5-(3-carboxymethoxyphenyl)-2-(4-sulfophenyl)-2H-tetrazolium, inner Salt]; 100 μg/mL of PES (phenazine […])).
(§5) 3) Compound test: cells were incubated into a 96-well culture plate, the volume of cytosol was 90 μL, and then 10 μL of the compound at each gradient concentration was added. That is, the highest concentration was 10 μM, which was diluted stepwise by ⅓, and 8 concentration points were set in total; 0.1% DMSO (dimethyl sulfoxide) was contained in the system. The cell plate with uniformly mixed compound was cultured in a cell culture incubator (37° C.; 5% […]) for 48 h, then 20 μL of MTS reaction solution was added, uniformly mixed and incubated in the cell culture incubator (37° C.; 5% CO2) for 1-4 h; OD values at 490 nm were measured by a microplate reader (VARIOSKAN FLASH, Thermo). Two parallels were set in each group of experiments, with 0.1% (a final concentration) DMSO as a negative control, and a culture medium without cells and compounds as a blank control. The cell growth inhibition rate was calculated by the following formula: Cell growth inhibition rate %=1−(ODexperimental group−ODblank group)/(ODnegative group−ODblank group)×100%.
(§6) 4) IC50 calculation: The semi-inhibitory concentration of the compounds acting on cells was calculated using GradPad Prism 5 software according to the measured cell growth inhibition rate.

The target in assay [2] is BaF3 cell lines stably transfected with kinase EGFR L858R (Homo sapiens, UniProt P00533, L858R, cells depend on it). In words: Growth inhibition of BaF3 cell line stably transfected with kinase EGFR L858R (MTS). The settings on record: 48 h, read-out: growth inhibitory activity IC50, L858R. Here is the method:
as §1, §2, §3, §4, §5, §6

The target of assay [3] is BaF3 cell lines stably transfected with kinase EGFR L858R/T790M (Homo sapiens, UniProt P00533, T790M/L858R, cells depend on it). The assay is described as follows: Growth inhibition of BaF3 cell line stably transfected with kinase EGFR L858R/T790M (MTS). Particulars: 48 h, read-out: growth inhibitory activity IC50, L858R/T790M. As for the experimental part:
as §1, §2, §3, §4, §5, §6

For assay [4], the target named is BaF3 cell lines stably transfected with kinase EGFR Del/T790M/C797S (Homo sapiens, UniProt P00533, T790M/C797S, cells depend on it, form not given). In words: Growth inhibition of BaF3 cell line stably transfected with kinase EGFR Del/T790M/C797S (MTS). The settings on record: 48 h, read-out: growth inhibitory activity IC50, Del/T790M/C797S. Here is the method:
as §1, §2, §3, §4, §5, §6

For assay [5], the target named is BaF3 cell lines stably transfected with kinase EGFR Del/T790M (Homo sapiens, UniProt P00533, T790M, cells depend on it, form not given). The assay is described as follows: Growth inhibition of BaF3 cell line stably transfected with kinase EGFR Del/T790M (MTS). Particulars: 48 h, read-out: growth inhibitory activity IC50, Del/T790M. Here is the method: as §1, §2, §3, §4, §5, §6
BaF3 cell lines stably transfected with kinase EGFR Del/T790M, sequence (P00533 with tags, fused parts or gaps DEL746-750/T790M, form open): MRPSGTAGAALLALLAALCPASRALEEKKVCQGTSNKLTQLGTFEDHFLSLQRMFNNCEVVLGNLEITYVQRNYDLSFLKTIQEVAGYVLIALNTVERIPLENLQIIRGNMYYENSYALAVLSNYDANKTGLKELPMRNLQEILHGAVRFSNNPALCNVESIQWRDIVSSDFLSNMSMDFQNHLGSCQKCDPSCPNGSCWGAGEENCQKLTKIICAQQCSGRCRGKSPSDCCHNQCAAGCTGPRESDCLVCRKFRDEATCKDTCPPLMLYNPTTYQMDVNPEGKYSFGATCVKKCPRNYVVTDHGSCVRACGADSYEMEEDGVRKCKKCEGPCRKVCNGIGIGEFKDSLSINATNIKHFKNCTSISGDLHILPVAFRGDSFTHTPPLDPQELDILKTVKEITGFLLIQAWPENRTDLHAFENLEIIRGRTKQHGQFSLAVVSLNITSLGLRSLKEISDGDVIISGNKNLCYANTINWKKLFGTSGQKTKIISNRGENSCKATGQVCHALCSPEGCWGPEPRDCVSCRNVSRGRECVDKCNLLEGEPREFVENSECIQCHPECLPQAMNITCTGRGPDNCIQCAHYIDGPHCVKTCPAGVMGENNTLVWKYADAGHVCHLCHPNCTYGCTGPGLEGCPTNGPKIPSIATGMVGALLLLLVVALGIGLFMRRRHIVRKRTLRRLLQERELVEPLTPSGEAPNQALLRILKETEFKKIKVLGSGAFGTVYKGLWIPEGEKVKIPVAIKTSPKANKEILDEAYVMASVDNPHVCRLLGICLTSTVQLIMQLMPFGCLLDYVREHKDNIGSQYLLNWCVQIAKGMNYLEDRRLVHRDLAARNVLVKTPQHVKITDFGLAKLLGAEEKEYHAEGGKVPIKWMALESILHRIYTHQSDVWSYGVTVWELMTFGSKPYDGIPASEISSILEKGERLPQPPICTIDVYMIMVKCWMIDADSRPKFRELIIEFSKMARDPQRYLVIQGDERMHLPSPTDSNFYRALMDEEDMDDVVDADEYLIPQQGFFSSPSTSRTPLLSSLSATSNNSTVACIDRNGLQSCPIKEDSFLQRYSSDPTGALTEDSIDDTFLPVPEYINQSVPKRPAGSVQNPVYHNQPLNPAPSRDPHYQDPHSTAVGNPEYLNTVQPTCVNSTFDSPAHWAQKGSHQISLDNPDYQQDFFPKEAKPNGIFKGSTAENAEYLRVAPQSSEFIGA

Assay [6] has as its target BaF3 cell lines stably transfected with kinase EGFR Del (Homo sapiens, UniProt P00533, cells depend on it, form not given). In words: Growth inhibition of BaF3 cell line stably transfected with kinase EGFR Del (MTS). The settings on record: 48 h, read-out: growth inhibitory activity IC50, Del. Here is the method:
as §1, §2, §3, §4, §5, §6

BaF3 cell lines stably transfected with kinase EGFR L858R, sequence (P00533 whole entry L858R): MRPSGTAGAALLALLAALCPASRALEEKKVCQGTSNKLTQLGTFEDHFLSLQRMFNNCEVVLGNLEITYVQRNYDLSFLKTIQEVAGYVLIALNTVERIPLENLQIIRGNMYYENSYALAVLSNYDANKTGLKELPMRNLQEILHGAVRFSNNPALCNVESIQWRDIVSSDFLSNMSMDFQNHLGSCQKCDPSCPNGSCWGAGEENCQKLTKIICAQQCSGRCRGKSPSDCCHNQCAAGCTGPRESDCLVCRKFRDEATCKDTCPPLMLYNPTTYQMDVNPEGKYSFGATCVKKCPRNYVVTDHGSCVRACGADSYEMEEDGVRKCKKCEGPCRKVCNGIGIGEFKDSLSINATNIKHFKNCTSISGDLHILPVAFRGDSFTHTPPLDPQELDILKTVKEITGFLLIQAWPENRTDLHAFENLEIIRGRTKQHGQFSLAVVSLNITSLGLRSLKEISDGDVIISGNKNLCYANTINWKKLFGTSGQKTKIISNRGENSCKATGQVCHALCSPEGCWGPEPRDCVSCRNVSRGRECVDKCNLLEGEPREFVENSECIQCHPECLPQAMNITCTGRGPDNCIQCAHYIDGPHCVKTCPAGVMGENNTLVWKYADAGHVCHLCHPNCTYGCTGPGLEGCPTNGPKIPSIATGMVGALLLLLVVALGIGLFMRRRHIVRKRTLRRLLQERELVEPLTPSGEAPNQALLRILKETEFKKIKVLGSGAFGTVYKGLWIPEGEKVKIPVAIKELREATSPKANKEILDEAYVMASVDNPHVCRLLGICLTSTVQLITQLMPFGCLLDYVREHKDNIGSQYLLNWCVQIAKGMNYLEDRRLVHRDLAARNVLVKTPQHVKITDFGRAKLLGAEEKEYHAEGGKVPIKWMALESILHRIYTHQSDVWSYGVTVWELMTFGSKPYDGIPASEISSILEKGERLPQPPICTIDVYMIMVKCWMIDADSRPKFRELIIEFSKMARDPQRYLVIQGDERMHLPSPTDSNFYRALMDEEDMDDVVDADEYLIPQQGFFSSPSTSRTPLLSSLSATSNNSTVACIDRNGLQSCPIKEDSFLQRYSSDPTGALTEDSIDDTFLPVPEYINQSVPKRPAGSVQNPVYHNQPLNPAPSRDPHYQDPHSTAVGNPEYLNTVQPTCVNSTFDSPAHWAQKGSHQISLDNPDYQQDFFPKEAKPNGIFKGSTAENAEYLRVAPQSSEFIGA
BaF3 cell lines stably transfected with kinase EGFR L858R/T790M/C797S, sequence (P00533 whole entry T790M/C797S/L858R): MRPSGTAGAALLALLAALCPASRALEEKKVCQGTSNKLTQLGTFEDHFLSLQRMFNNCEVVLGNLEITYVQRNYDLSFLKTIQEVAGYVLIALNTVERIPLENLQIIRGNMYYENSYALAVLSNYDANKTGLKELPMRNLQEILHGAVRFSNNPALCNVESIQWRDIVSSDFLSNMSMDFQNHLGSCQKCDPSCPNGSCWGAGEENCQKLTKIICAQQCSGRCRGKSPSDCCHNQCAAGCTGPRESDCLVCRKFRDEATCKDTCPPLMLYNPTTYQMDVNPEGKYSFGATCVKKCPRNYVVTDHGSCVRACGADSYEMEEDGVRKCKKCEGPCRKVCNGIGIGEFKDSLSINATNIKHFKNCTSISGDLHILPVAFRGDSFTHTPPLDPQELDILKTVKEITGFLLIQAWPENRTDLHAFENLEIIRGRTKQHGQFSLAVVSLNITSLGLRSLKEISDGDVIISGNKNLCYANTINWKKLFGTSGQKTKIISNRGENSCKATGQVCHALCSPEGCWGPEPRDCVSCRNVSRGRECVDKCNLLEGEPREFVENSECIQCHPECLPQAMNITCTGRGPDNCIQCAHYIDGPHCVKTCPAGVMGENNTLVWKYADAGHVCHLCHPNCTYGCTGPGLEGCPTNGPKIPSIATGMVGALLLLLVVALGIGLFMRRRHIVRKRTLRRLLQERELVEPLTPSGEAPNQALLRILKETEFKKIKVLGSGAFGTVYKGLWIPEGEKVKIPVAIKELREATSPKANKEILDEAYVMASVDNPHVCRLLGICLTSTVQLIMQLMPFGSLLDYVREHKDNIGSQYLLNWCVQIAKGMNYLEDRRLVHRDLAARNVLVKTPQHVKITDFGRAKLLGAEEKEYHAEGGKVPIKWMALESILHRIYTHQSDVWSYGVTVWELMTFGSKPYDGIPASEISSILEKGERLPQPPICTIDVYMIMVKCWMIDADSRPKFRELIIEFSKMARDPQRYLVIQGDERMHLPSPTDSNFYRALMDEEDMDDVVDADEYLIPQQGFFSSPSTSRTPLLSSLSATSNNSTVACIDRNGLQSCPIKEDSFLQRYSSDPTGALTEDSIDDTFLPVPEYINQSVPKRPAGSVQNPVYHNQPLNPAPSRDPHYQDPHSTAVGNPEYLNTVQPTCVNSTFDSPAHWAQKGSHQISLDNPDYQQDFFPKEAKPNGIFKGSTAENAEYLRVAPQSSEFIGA
BaF3 cell lines stably transfected with kinase EGFR Del, sequence (P00533 with tags, fused parts or gaps DEL746-750): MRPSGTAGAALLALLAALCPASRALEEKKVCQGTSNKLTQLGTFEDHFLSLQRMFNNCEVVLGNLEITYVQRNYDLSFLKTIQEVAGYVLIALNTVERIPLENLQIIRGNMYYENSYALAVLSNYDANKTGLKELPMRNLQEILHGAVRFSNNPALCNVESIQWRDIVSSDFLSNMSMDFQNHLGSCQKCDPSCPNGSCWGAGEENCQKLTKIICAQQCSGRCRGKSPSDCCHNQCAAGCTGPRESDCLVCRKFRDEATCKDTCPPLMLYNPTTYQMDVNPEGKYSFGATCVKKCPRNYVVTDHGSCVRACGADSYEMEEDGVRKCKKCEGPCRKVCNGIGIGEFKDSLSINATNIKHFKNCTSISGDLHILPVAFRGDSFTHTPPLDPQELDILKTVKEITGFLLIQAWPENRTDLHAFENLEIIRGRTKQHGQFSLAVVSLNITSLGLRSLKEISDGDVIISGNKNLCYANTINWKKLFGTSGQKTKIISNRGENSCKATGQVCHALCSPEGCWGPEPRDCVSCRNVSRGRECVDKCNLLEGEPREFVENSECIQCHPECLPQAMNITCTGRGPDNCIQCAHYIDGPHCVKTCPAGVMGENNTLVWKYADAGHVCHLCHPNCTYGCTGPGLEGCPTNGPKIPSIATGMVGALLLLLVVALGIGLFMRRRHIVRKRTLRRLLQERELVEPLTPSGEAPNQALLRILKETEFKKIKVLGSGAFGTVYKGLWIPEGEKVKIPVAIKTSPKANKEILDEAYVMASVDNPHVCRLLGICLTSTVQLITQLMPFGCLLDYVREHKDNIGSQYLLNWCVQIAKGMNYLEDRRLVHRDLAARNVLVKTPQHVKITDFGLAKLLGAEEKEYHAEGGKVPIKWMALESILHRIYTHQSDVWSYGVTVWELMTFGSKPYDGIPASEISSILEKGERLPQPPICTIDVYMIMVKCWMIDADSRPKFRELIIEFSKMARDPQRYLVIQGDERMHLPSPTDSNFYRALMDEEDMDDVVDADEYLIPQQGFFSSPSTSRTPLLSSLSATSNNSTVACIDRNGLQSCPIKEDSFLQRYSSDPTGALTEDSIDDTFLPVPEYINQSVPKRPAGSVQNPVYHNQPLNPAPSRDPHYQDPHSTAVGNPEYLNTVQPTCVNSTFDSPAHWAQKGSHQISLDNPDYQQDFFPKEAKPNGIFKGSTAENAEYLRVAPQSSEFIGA

As to `C=Cc1cnc(Nc2cc(C(C)C)c(N3CCC(N4CCN(C)CC4)CC3)cc2OC)nc1Nc1ccc2nccnc2c1S(=O)(=O)C(C)C` [III-20], the GI50 in assay [1] lay within 500 to 2500 nM; in assay [2], 50 to 500 nM; in assay [3] it was 50 to 500 nM; in assay [4], 500 to 2500 nM; in assay [5], 500 to 2500 nM; in assay [6], 500 to 2500 nM.

Consider `C=Cc1cnc(Nc2cc(C)c(N3CCC(N4CCN(C)CC4)CC3)cc2OC)nc1Nc1ccc2nccnc2c1S(=O)(=O)NC(C)C` [IV-17], for which the GI50 in assay [1] was in the range of 500 to 2500 nM; in assay [2], 50 to 500 nM; in assay [3] it was 50 to 500 nM; in assay [4], 500 to 2500 nM; in assay [5] it was 50 to 500 nM; in assay [6] it was 500 to 2500 nM.

Regarding `C=Cc1cnc(Nc2cc(CC)c(N3CCC4(CC3)CC(N(C)C)C4)cc2OC)nc1Nc1ccc2nccnc2c1N(C)S(C)(=O)=O` [II-55], the GI50 in assay [1], in assay [2], in assay [3], in assay [4], in assay [5] and in assay [6] was 50 to 500 nM each time.

`C=Cc1cnc(Nc2cc(C3CC3)c(N3CCC(N4CCN(C)CC4)CC3)cc2OC)nc1Nc1ccc2nccnc2c1NS(C)(=O)=O` [II-36]: the GI50 was no more than 50 nM in assay [1]; no more than 50 nM in assay [2]; 50 to 500 nM in assay [3]; 50 to 500 nM in assay [4]; no more than 50 nM in assay [5]; no more than 50 nM in assay [6].

On to `C=Cc1cnc(Nc2cc(C)c(N3CCC(N4CCN(C)CC4)CC3)cc2OC)nc1Nc1ccc2nccnc2c1S(C)(=O)=O` [III-9], for which the GI50 lay within 500 to 2500 nM in assay [1]; 500 to 2500 nM in assay [2]; 50 to 500 nM in assay [3]; 500 to 2500 nM in assay [4]; 500 to 2500 nM in assay [5]; 500 to 2500 nM in assay [6].

As for `C=C(C)c1cnc(Nc2cnn(C)c2)nc1Nc1ccc2nccnc2c1N(C)S(C)(=O)=O` [II-71], the GI50 was 50 to 500 nM in assay [1]; 50 to 500 nM in assay [2]; no more than 50 nM in assay [3]; no more than 50 nM in assay [4]; no more than 50 nM in assay [5]; 50 to 500 nM in assay [6].

Consider `C=Cc1cnc(Nc2cnn(C)c2)nc1Nc1ccc2nccnc2c1N(C)S(C)(=O)=O` [II-65], for which the GI50 in assay [1], in assay [2], in assay [3], in assay [4], in assay [5] and in assay [6] was 50 to 500 nM in each case.

Regarding `C=Cc1cnc(Nc2cc(CC)c(N3CCC(N(C)C)C3)cc2OC)nc1Nc1ccc2nccnc2c1NS(C)(=O)=O` (stereo not drawn) [II-40], the GI50 in assay [1] was no more than 50 nM; in assay [2], no more than 50 nM; in assay [3], 50 to 500 nM; in assay [4], no more than 50 nM; in assay [5] it was no more than 50 nM; in assay [6] it was no more than 50 nM.

As to `C=Cc1cnc(Nc2cc(CC3CC3)c(N3CCC(N4CCN(C)CC4)CC3)cc2OC)nc1Nc1ccc2nccnc2c1P(C)(C)=O` [Compound I-7], the GI50 in assay [1], in assay [2], in assay [3], in assay [4], in assay [5] and in assay [6] was no more than 50 nM each time.

As for `C=Cc1cnc(Nc2cc(CC)c(N3CCC(N4CCN(C)CC4)CC3)cc2OC(F)(F)F)nc1Nc1ccc2nccnc2c1N(C)S(C)(=O)=O` [II-6], the GI50 in assay [1] is 50 to 500 nM; in assay [2], 50 to 500 nM; in assay [3] it was 50 to 500 nM; in assay [4], no more than 50 nM; in assay [5], no more than 50 nM; in assay [6], 50 to 500 nM.

Regarding `C=C(C)c1cnc(Nc2cc(C)c(N3CCC(N4CCN(C)CC4)CC3)nc2OC)nc1Nc1ccc2nccnc2c1P(C)(C)=O` [Compound I-20], the GI50 in assay [1] lay in the range of 500 to 2500 nM; in assay [2] it was 50 to 500 nM; in assay [3] it was 50 to 500 nM; in assay [4] it was 500 to 2500 nM; in assay [5], 50 to 500 nM; in assay [6], 500 to 2500 nM.

In the case of `C=C(C)c1cnc(Nc2cc(CC)c(N3CCC(N4CCN(C)CC4)CC3)cc2OC)nc1Nc1ccc2nccnc2c1P(C)(C)=O` [Compound I-15], the GI50 in assay [1], in assay [2], in assay [3], in assay [4], in assay [5] and in assay [6] was no more than 50 nM each time.

On to `C=Cc1cnc(Nc2ccc3c(c2)C(C)CN(C)CC3)nc1Nc1ccc2nccnc2c1N(C)S(C)(=O)=O` (stereo not drawn) [II-78], for which the GI50 is no more than 50 nM in assay [1]; no more than 50 nM in assay [2]; no more than 50 nM in assay [3]; 50 to 500 nM in assay [4]; 50 to 500 nM in assay [5]; no more than 50 nM in assay [6].

With `C=Cc1cnc(Nc2cc(CC)c(N3CCC(N4CCN(C)CC4)CC3)nc2OC)nc1Nc1ccc2nccnc2c1NS(C)(=O)=O` [II-33], the GI50 in assay [1] is 50 to 500 nM; in assay [2], no more than 50 nM; in assay [3], 50 to 500 nM; in assay [4], 50 to 500 nM; in assay [5] it was 50 to 500 nM; in assay [6], no more than 50 nM.

On to `C=Cc1cnc(Nc2cc(CC)c(N3CCC(N4CCN(C)CC4)CC3)cc2OC)nc1Nc1ccc2nccnc2c1N(C)S(=O)(=O)C1CC1` [II-11], for which the GI50 in assay [1] was 50 to 500 nM; in assay [2], 50 to 500 nM; in assay [3], 50 to 500 nM; in assay [4], 50 to 500 nM; in assay [5], no more than 50 nM; in assay [6], no more than 50 nM.

Regarding `C=Cc1cnc(Nc2cc(CC)c(N3CCC(N4CCN(C)CC4)CC3)cc2OC)nc1Nc1ccc2nccnc2c1N(C)S(C)(=O)=O` [II-1], the GI50 in assay [1], in assay [2], in assay [3], in assay [4], in assay [5] and in assay [6] was no more than 50 nM in each case.

As to `C=Cc1cnc(Nc2cc3c(cc2F)CCN(C)C3)nc1Nc1ccc2nccnc2c1N(C)S(C)(=O)=O` [II-74], the GI50 in assay [1] is 50 to 500 nM; in assay [2] it was no more than 50 nM; in assay [3] it was 50 to 500 nM; in assay [4], 50 to 500 nM; in assay [5], 50 to 500 nM; in assay [6] it was 50 to 500 nM.

For `C=Cc1cnc(Nc2ccc(N3CCC(N4CCN(C)CC4)CC3)cc2OC)nc1Nc1ccc2nccnc2c1S(=O)(=O)NC` [IV-1], the GI50 in assay [1] is 500 to 2500 nM; in assay [2], 500 to 2500 nM; in assay [3], 50 to 500 nM; in assay [4], 500 to 2500 nM; in assay [5], 500 to 2500 nM; in assay [6], 500 to 2500 nM.

Turning to `C=Cc1cnc(Nc2ccc(N3CCC(N4CCN(C)CC4)CC3)c(F)c2F)nc1Nc1ccc2nccnc2c1NS(C)(=O)=O` [II-45], the GI50 in assay [1] is 500 to 2500 nM; in assay [2] it was 50 to 500 nM; in assay [3], 50 to 500 nM; in assay [4] it was 500 to 2500 nM; in assay [5] it was 50 to 500 nM; in assay [6], 50 to 500 nM.

As for `C=Cc1cnc(Nc2cc(CC)c(N3CCC(N4CCNCC4)CC3)cc2OC)nc1Nc1ccc2nccnc2c1N(C)S(C)(=O)=O` [II-52], the GI50 in assay [1] was no more than 50 nM; in assay [2], 50 to 500 nM; in assay [3], no more than 50 nM; in assay [4] it was no more than 50 nM; in assay [5], 50 to 500 nM; in assay [6], 50 to 500 nM.

In the case of `C=Cc1cnc(Nc2cc3c(cc2C)CCN(C)C3)nc1Nc1ccc2nccnc2c1N(C)S(C)(=O)=O` [II-72], the GI50 in assay [1] is no more than 50 nM; in assay [2], 50 to 500 nM; in assay [3] it was 50 to 500 nM; in assay [4] it was 50 to 500 nM; in assay [5], 500 to 2500 nM; in assay [6], 50 to 500 nM.

With `C=Cc1cnc(Nc2cc(CC3CC3)c(N3CCC(N4CCN(C)CC4)CC3)cc2OC)nc1Nc1ccc2nccnc2c1NS(C)(=O)=O` [II-37], the GI50 in assay [1] was no more than 50 nM; in assay [2], no more than 50 nM; in assay [3] it was 50 to 500 nM; in assay [4], 50 to 500 nM; in assay [5] it was no more than 50 nM; in assay [6], no more than 50 nM.
